Values joined by “and” are separate entries in the source; they are usually repeats but may differ in a detail not shown here. Equal values may be shown once. Inconclusive results and toxic doses are left out.
Test system: P388 leukemia ip, CD2F1 mice, survival T/C
Experiment: NCI In Vivo Anticancer Drug Screen. Data for tumor model P388 Leukemia (intraperitoneal) in CD2F1 (CDF1) mice
Conditions: endpoint: median survival time, higher = longer survival
Summary of the method: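 Mice carrying the transplanted tumor received test compound or vehicle. Survival was recorded in each group, and the value is the treated-group measurement divided by that of the vehicle-treated control group.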

[1] = dose: 50.0 mg/kg/injection, schedule: Q01DX005 (ip), vehicle: saline with Tween-80
[2] = dose: 100.0 mg/kg/injection, schedule: Q01DX005 (ip), vehicle: saline with Tween-80
[3] = dose: 100.0 mg/kg/injection, schedule: Q01DX009 (ip), vehicle: saline with Tween-80
[4] = dose: 200.0 mg/kg/injection, schedule: Q01DX009 (ip), vehicle: saline with Tween-80
[5] = dose: 50.0 mg/kg/injection, schedule: Q01DX005 (ip), vehicle: Klucel (hydroxypropylcellulose) (HPC)
[6] = dose: 100.0 mg/kg/injection, schedule: Q01DX005 (ip), vehicle: Klucel (hydroxypropylcellulose) (HPC)
[7] = dose: 200.0 mg/kg/injection, schedule: Q01DX005 (ip), vehicle: Klucel (hydroxypropylcellulose) (HPC)
[8] = dose: 50.0 mg/kg/injection, schedule: Q01DX009 (ip), vehicle: saline with Tween-80
[9] = dose: 50.0 mg/kg/injection, schedule: Q01DX009 (ip), vehicle: saline
[10] = dose: 100.0 mg/kg/injection, schedule: Q01DX009 (ip), vehicle: saline
[11] = dose: 200.0 mg/kg/injection, schedule: Q01DX009 (ip), vehicle: saline

CC1(C)OC2OC(COC(=O)c3ccccc3)C(OS(C)(=O)=O)C2O1 (stereo not drawn)
T/C [1]: 103 % of control
T/C [2]: 100 % of control
T/C (dose: 200.0 mg/kg/injection, schedule: Q01DX005 (ip), vehicle: saline with Tween-80): 102 % of control

[NH-]C(CO)C(=O)O.[NH-]C(CO)C(=O)O.[Pt+2] (stereo not drawn)
T/C (dose: 3.13 mg/kg/injection, schedule: Q01DX009 (ip), vehicle: water): 91 % of control
T/C (dose: 6.25 mg/kg/injection, schedule: Q01DX009 (ip), vehicle: water): 91 % of control
T/C (dose: 12.5 mg/kg/injection, schedule: Q01DX009 (ip), vehicle: water): 97 % of control
T/C (dose: 25.0 mg/kg/injection, schedule: Q01DX009 (ip), vehicle: water): 106 % of control
T/C (dose: 50.0 mg/kg/injection, schedule: Q01DX009 (ip), vehicle: water): 115 % of control
T/C (dose: 100.0 mg/kg/injection, schedule: Q01DX009 (ip), vehicle: water): 115 % of control

CC(=O)OCC(=O)[C@@]1(O)CC[C@H]2[C@@H]3C[C@H](C)C4=CC(=O)C=C[C@]4(C)[C@@]3(F)[C@@H](O)C[C@@]21C
T/C (dose: 50.0 mg/kg/injection, schedule: Q04DX003 (ip), vehicle: saline with Tween-80): 109 % of control
T/C [3]: 100 % of control
T/C (dose: 100.0 mg/kg/injection, schedule: Q04DX003 (ip), vehicle: saline with Tween-80): 118 % of control
T/C [4]: 90 % of control
T/C (dose: 200.0 mg/kg/injection, schedule: Q04DX003 (ip), vehicle: saline with Tween-80): 118 % of control

COc1ccc(N=Nc2ccc(N)c3cccnc23)c(OC)c1
T/C (dose: 100.0 mg/kg/injection, schedule: Q04DX002 (ip), vehicle: saline with Tween-80): 97 % of control
T/C (dose: 200.0 mg/kg/injection, schedule: Q04DX002 (ip), vehicle: saline with Tween-80): 106 % of control
T/C (dose: 400.0 mg/kg/injection, schedule: Q04DX002 (ip), vehicle: saline with Tween-80): 92 % of control

CC(=O)NCCSSCCSC(=S)N1CCCCC1
T/C [5]: 112 % of control
T/C [6]: 107 % of control
T/C [7]: 102 % of control

CCCCCN(CCCCC)CC(O)c1c(OC)ccc2ccccc12 (stereo not drawn)
T/C (dose: 12.5 mg/kg/injection, schedule: Q01DX009 (ip), vehicle: Klucel (hydroxypropylcellulose) (HPC)): 102 % of control
T/C (dose: 25.0 mg/kg/injection, schedule: Q01DX009 (ip), vehicle: Klucel (hydroxypropylcellulose) (HPC)): 103 % of control
T/C (dose: 50.0 mg/kg/injection, schedule: Q01DX009 (ip), vehicle: Klucel (hydroxypropylcellulose) (HPC)): 94 % of control

Cc1cc(N)c(C)c2ccncc12
T/C (dose: 0.63 mg/kg/injection, schedule: Q01DX009 (ip), vehicle: saline with Tween-80): 100 % of control
T/C (dose: 1.25 mg/kg/injection, schedule: Q01DX009 (ip), vehicle: saline with Tween-80): 90 % of control
T/C (dose: 2.5 mg/kg/injection, schedule: Q04DX003 (ip), vehicle: saline with Tween-80): 104 % of control

CC1(c2ccc([N+](=O)[O-])cc2)OC(=O)C(=Cc2ccc([N+](=O)[O-])s2)C(=O)O1 (stereo not drawn)
T/C [8]: 103 % of control
T/C [3]: 96 % of control
T/C [4]: 103 % of control

O=C1NC(Cc2ccccc2)C(=O)N2CCCC12 (stereo not drawn)
T/C [9]: 100 % of control
T/C [10]: 96 % of control
T/C [11]: 101 % of control

CCc1cc2c(c3c1C(=O)CC3)C(C)(C)CCC2
T/C (dose: 50.0 mg/kg/injection, schedule: Q01DX005 (ip), vehicle: saline + Tween-80 + alcohol): 106 % of control
T/C (dose: 100.0 mg/kg/injection, schedule: Q01DX005 (ip), vehicle: saline + Tween-80 + alcohol): 92 % of control
T/C (dose: 200.0 mg/kg/injection, schedule: Q01DX005 (ip), vehicle: saline + Tween-80 + alcohol): 97 % of control

CN=NN/C1=C/CCCCCC1
T/C (dose: 15.0 mg/kg/injection, schedule: Q01DX005 (ip), vehicle: Klucel + Tween-80): 105 % of control
T/C (dose: 30.0 mg/kg/injection, schedule: Q01DX005 (ip), vehicle: Klucel + Tween-80): 113 % of control
T/C (dose: 60.0 mg/kg/injection, schedule: Q01DX005 (ip), vehicle: Klucel + Tween-80): 111 % of control and 117 % of control

CCCC(C)C1(CC)C(=O)N(CCCl)C(=O)N(CCCl)C1=O (stereo not drawn)
T/C [8]: 93 % of control
T/C [3]: 99 % of control
T/C [4]: 93 % of control

CC1=NN(C(=O)c2ccncc2)C(=O)C1N=Nc1ccc(C)cc1 (stereo not drawn)
T/C [8]: 105 % of control
T/C [3]: 101 % of control
T/C [4]: 99 % of control

CC(=O)Oc1ccc(C(O)CN(C)OC(C)=O)cc1OC(C)=O (stereo not drawn)
T/C (dose: 12.5 mg/kg/injection, schedule: Q01DX005 (ip), vehicle: Klucel + Tween-80): 100 % of control
T/C (dose: 25.0 mg/kg/injection, schedule: Q01DX005 (ip), vehicle: Klucel + Tween-80): 101 % of control
T/C (dose: 50.0 mg/kg/injection, schedule: Q01DX005 (ip), vehicle: Klucel + Tween-80): 101 % of control and 92 % of control

CSCCC(C(=O)O)N1C(=O)C=CC1=O (stereo not drawn)
T/C (dose: 11.25 mg/kg/injection, schedule: Q01DX009 (ip), vehicle: saline with Tween-80): 97 % of control
T/C (dose: 22.5 mg/kg/injection, schedule: Q01DX009 (ip), vehicle: saline with Tween-80): 97 % of control
T/C (dose: 45.0 mg/kg/injection, schedule: Q01DX009 (ip), vehicle: saline with Tween-80): 100 % of control and 88 % of control

O=C(CCN1CCCC1)c1ccccc1
T/C (dose: 12.5 mg/kg/injection, schedule: Q01DX009 (ip), vehicle: saline): 98 % of control
T/C (dose: 25.0 mg/kg/injection, schedule: Q01DX009 (ip), vehicle: saline): 100 % of control
T/C [9]: 100 % of control

c1cnc(NC(Nc2ncccn2)C2CCCCC2)nc1
T/C (dose: 60.0 mg/kg/injection, schedule: Q01DX005 (ip), vehicle: Klucel (hydroxypropylcellulose) (HPC)): 100 % of control
T/C (dose: 120.0 mg/kg/injection, schedule: Q01DX005 (ip), vehicle: Klucel (hydroxypropylcellulose) (HPC)): 100 % of control
T/C (dose: 240.0 mg/kg/injection, schedule: Q01DX005 (ip), vehicle: Klucel (hydroxypropylcellulose) (HPC)): 94 % of control

Cc1onc(-c2c(Cl)cccc2Cl)c1C(=O)SC1=NC(C)N2C(SC(=O)c3c(-c4c(Cl)cccc4Cl)noc3C)=NC(C)N12 (stereo not drawn)
T/C [1]: 90 % of control
T/C [2]: 87 % of control

CC(=O)OCC1OC(Nc2[nH]c(=O)n(C)c(=O)c2C=O)C(OC(C)=O)C(OC(C)=O)C1OC(C)=O (stereo not drawn)
T/C (dose: 60.0 mg/kg/injection, schedule: Q01DX005 (ip), vehicle: saline with Tween-80): 105 % of control
T/C (dose: 120.0 mg/kg/injection, schedule: Q01DX005 (ip), vehicle: saline with Tween-80): 109 % of control
T/C (dose: 240.0 mg/kg/injection, schedule: Q01DX005 (ip), vehicle: saline with Tween-80): 103 % of control

COC(=O)C(N)Cc1ccc(O)c(O)c1 (stereo not drawn)
T/C [9]: 101 % of control
T/C (dose: 50.0 mg/kg/injection, schedule: Q08HX028 (ip), vehicle: water): 99 % of control
T/C [10]: 108 % of control and 115 % of control
T/C (dose: 100.0 mg/kg/injection, schedule: Q08HX028 (ip), vehicle: water): 102 % of control
T/C [11]: 111 % of control and 121 % of control
T/C (dose: 200.0 mg/kg/injection, schedule: Q08HX028 (ip), vehicle: water): 120 % of control
T/C (dose: 800.0 mg/kg/injection, schedule: Q01DX009 (ip), vehicle: saline): 156 % of control

O=C(O)CCc1ccc(O)c(O)c1
T/C [9]: 102 % of control and 111 % of control
T/C [10]: 100 % of control and 111 % of control
T/C [11]: 108 % of control and 110 % of control
T/C (dose: 400.0 mg/kg/injection, schedule: Q01DX009 (ip), vehicle: saline): 111 % of control and 115 % of control

COc1cccc2c1C(=O)c1c(O)c3c(c(O)c1C2=O)CC(O)(C(C)O)CC3OC1CCN(c2ccccc2)CC(C)O1 (stereo not drawn)
T/C (dose: 3.13 mg/kg/injection, schedule: Q04DX003 (ip), vehicle: distilled water + Tween-80): 103 % of control
T/C (dose: 6.25 mg/kg/injection, schedule: Q04DX003 (ip), vehicle: distilled water + Tween-80): 100 % of control
T/C (dose: 12.5 mg/kg/injection, schedule: Q04DX003 (ip), vehicle: distilled water + Tween-80): 108 % of control
T/C (dose: 25.0 mg/kg/injection, schedule: Q04DX003 (ip), vehicle: distilled water + Tween-80): 105 % of control
T/C (dose: 50.0 mg/kg/injection, schedule: Q04DX003 (ip), vehicle: distilled water + Tween-80): 104 % of control
T/C (dose: 100.0 mg/kg/injection, schedule: Q04DX003 (ip), vehicle: distilled water + Tween-80): 105 % of control
T/C (dose: 200.0 mg/kg/injection, schedule: Q04DX003 (ip), vehicle: distilled water + Tween-80): 124 % of control
T/C (dose: 400.0 mg/kg/injection, schedule: Q04DX003 (ip), vehicle: distilled water + Tween-80): 101 % of control

Oc1ccccc1C=Nc1ccc2c(ccc3c4ccccc4ccc23)c1
T/C [5]: 111 % of control
T/C [6]: 102 % of control
T/C [7]: 116 % of control

— PubChem BioAssay AID330 (DTP/NCI, 2004)
